Test results from PubChem BioAssay AID330 (DTP/NCI, 2004).
“And” between values parts separate entries of the source, which are not always exact repeats. Equal entries are not always repeated. Toxic doses and inconclusive results are not listed.

System: P388 leukemia ip, CD2F1 mice, survival T/C
Experiment: NCI In Vivo Anticancer Drug Screen. Data for tumor model P388 Leukemia (intraperitoneal) in CD2F1 (CDF1) mice
Conditions: endpoint: median survival time, higher = longer survival
Outline: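 Mice carrying the transplanted tumor received test compound or vehicle. Survival was recorded in each group, and the value is the treated-group measurement divided by that of the vehicle-treated control group.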

[1] = dose: 60.0 mg/kg/injection, schedule: Q01DX005 (ip), vehicle: saline with Tween-80
[2] = dose: 120.0 mg/kg/injection, schedule: Q01DX005 (ip), vehicle: saline with Tween-80
[3] = dose: 50.0 mg/kg/injection, schedule: Q01DX009 (ip), vehicle: saline with Tween-80
[4] = dose: 100.0 mg/kg/injection, schedule: Q01DX009 (ip), vehicle: saline with Tween-80
[5] = dose: 200.0 mg/kg/injection, schedule: Q01DX009 (ip), vehicle: saline with Tween-80
[6] = dose: 60.0 mg/kg/injection, schedule: Q01DX005 (ip), vehicle: Klucel (hydroxypropylcellulose) (HPC)
[7] = dose: 120.0 mg/kg/injection, schedule: Q01DX005 (ip), vehicle: Klucel (hydroxypropylcellulose) (HPC)
[8] = dose: 240.0 mg/kg/injection, schedule: Q01DX005 (ip), vehicle: Klucel (hydroxypropylcellulose) (HPC)
[9] = dose: 50.0 mg/kg/injection, schedule: Q01DX009 (ip), vehicle: Klucel (hydroxypropylcellulose) (HPC)
[10] = dose: 100.0 mg/kg/injection, schedule: Q01DX009 (ip), vehicle: Klucel (hydroxypropylcellulose) (HPC)
[11] = dose: 200.0 mg/kg/injection, schedule: Q01DX009 (ip), vehicle: Klucel (hydroxypropylcellulose) (HPC)

With COC(=O)NC1C(C)OC(OC2C/C=C(/C)C3C=CC4C(OC5CC(OC6CCC(OC7CC(O)C(OC8CCC(O)C(C)O8)C(C)O7)C(C)O6)C(OC(C)=O)C(C)O5)C(C)CC(C)C4C3(C)/C(O)=C3/C(=O)OC4(CC(C=O)=CC(O)C4/C=C\2C)C3=O)CC1(C)[N+](=O)[O-] (centres undefined) the T/C (dose: 2.25 mg/kg/injection, schedule: Q01DX005 (iv), vehicle: water) was 97 % of control, the T/C (dose: 2.5 mg/kg/injection, schedule: Q01DX005 (ip), vehicle: water) was 106 % of control and 120 % of control and the T/C (dose: 3.06 mg/kg/injection, schedule: Q01DX005 (ip), vehicle: water) was 121 % of control. For the same compound, the T/C (dose: 3.35 mg/kg/injection, schedule: Q01DX005 (iv), vehicle: water) was 96 % of control, the T/C (dose: 4.49 mg/kg/injection, schedule: Q01DX005 (ip), vehicle: water) was 121 % of control and the T/C (dose: 5.0 mg/kg/injection, schedule: Q01DX005 (ip), vehicle: water) was 121 % of control. The T/C (dose: 5.0 mg/kg/injection, schedule: Q01DX005 (iv), vehicle: water) was 95 % of control, the T/C (dose: 6.7 mg/kg/injection, schedule: Q01DX005 (ip), vehicle: water) was 118 % of control and the T/C (dose: 7.47 mg/kg/injection, schedule: Q01DX005 (iv), vehicle: water) was 97 % of control. For the same compound, the T/C (dose: 10.0 mg/kg/injection, schedule: Q01DX005 (ip), vehicle: water) was 121 % of control and 123 % of control and 124 % of control and the T/C (dose: 11.14 mg/kg/injection, schedule: Q01DX005 (iv), vehicle: water) was 96 % of control.

With Cc1nccn1Cc1ccc(Cl)cc1Cl the T/C [1] was 95 % of control and the T/C [2] was 95 % of control.

In the case of CN(C)c1ccc(Cc2c[nH]c3ccccc3c2=O)cc1, the T/C [1] is reported as 94 % of control, the T/C [2] is reported as 92 % of control and the T/C (dose: 240.0 mg/kg/injection, schedule: Q01DX005 (ip), vehicle: saline with Tween-80) is reported as 95 % of control.

In the case of COc1cc2c(c(NC(C)CCCN=C(N)NC(N)=NC(C)C)c1)NCCC2 (centres undefined), the T/C (dose: 3.12 mg/kg/injection, schedule: Q01DX005 (ip), vehicle: saline with Tween-80) is reported as 103 % of control, the T/C (dose: 6.25 mg/kg/injection, schedule: Q01DX005 (ip), vehicle: saline with Tween-80) is reported as 106 % of control and the T/C (dose: 12.5 mg/kg/injection, schedule: Q01DX005 (ip), vehicle: saline with Tween-80) is reported as 106 % of control.

In the case of CCOc1ccccc1N=Cc1c2ccccc2cc2ccccc12, the T/C (dose: 12.5 mg/kg/injection, schedule: Q01DX009 (ip), vehicle: saline with Tween-80) is reported as 100 % of control, the T/C (dose: 25.0 mg/kg/injection, schedule: Q01DX009 (ip), vehicle: saline with Tween-80) is reported as 95 % of control and the T/C [3] is reported as 98 % of control and 86 % of control. The T/C [4] was 89 % of control.

In the case of O=C1CCCN1C(=O)C1CC1, the T/C (dose: 50.0 mg/kg/injection, schedule: Q01DX001 (ip), vehicle: saline) is reported as 100 % of control, the T/C (dose: 100.0 mg/kg/injection, schedule: Q01DX001 (ip), vehicle: saline) is reported as 109 % of control and the T/C (dose: 200.0 mg/kg/injection, schedule: Q01DX001 (ip), vehicle: saline) is reported as 100 % of control.

In the case of O=C(NCc1ccco1)C(=O)N/N=C/c1ccccc1O, the T/C [3] is reported as 89 % of control, the T/C [4] is reported as 92 % of control and the T/C [5] is reported as 92 % of control.

O=[N+]([O-])c1ccc(N=C/C=C\Nc2ccc([N+](=O)[O-])cc2)cc1 was tested, and the T/C [6] was 87 % of control, the T/C [7] was 93 % of control and the T/C [8] was 104 % of control.

In the case of COC(=O)CCCC#C/C=C/CCCC/C=C(Br)\C=C/Br, the T/C (dose: 62.5 mg/kg/injection, schedule: Q01DX009 (ip), vehicle: olive oil, sesame oil, peanut oil) is reported as 101 % of control, the T/C (dose: 125.0 mg/kg/injection, schedule: Q01DX009 (ip), vehicle: olive oil, sesame oil, peanut oil) is reported as 96 % of control and the T/C (dose: 250.0 mg/kg/injection, schedule: Q01DX009 (ip), vehicle: olive oil, sesame oil, peanut oil) is reported as 98 % of control.

CCCCCCCCCCCCCOCC(=O)O was tested, and the T/C [9] was 100 % of control, the T/C [10] was 95 % of control and the T/C [11] was 102 % of control.

For Cc1nc2sc3c(c2c2nncn12)CCCC3, the T/C (dose: 50.0 mg/kg/injection, schedule: Q01DX005 (ip), vehicle: Klucel (hydroxypropylcellulose) (HPC)) was 103 % of control, the T/C (dose: 100.0 mg/kg/injection, schedule: Q01DX005 (ip), vehicle: Klucel (hydroxypropylcellulose) (HPC)) was 97 % of control and the T/C (dose: 200.0 mg/kg/injection, schedule: Q01DX005 (ip), vehicle: Klucel (hydroxypropylcellulose) (HPC)) was 97 % of control.

With CN(NC(=O)C(=O)NCc1ccco1)C(=O)Nc1ccc(Cl)cc1 the T/C [3] was 103 % of control, the T/C [4] was 100 % of control and the T/C [5] was 92 % of control.

CCN1/C(=C/C=C/C=C\C=C\c2sc3ccc4ccccc4c3[n+]2CC)Sc2ccc3ccccc3c21 was tested, and the T/C (dose: 1.56 mg/kg/injection, schedule: Q04DX002 (ip), vehicle: saline with Tween-80) was 153 % of control and 168 % of control, the T/C (dose: 3.12 mg/kg/injection, schedule: Q04DX002 (ip), vehicle: saline with Tween-80) was 166 % of control and the T/C (dose: 6.25 mg/kg/injection, schedule: Q04DX002 (ip), vehicle: saline with Tween-80) was 156 % of control and 171 % of control. For the same compound, the T/C (dose: 12.5 mg/kg/injection, schedule: Q04DX002 (ip), vehicle: saline with Tween-80) was 159 % of control and 171 % of control and 186 % of control.

CN(CCc1ccccn1)c1ccc2c(c1)C(=O)c1ccccc1-2 was tested, and the T/C (dose: 50.0 mg/kg/injection, schedule: Q01DX005 (ip), vehicle: saline with Tween-80) was 100 % of control and the T/C (dose: 100.0 mg/kg/injection, schedule: Q01DX005 (ip), vehicle: saline with Tween-80) was 93 % of control.

CCOC(=O)NC(N)=O was tested, and the T/C [3] was 91 % of control, the T/C [4] was 89 % of control and the T/C [5] was 89 % of control. The T/C (dose: 400.0 mg/kg/injection, schedule: Q01DX009 (ip), vehicle: saline with Tween-80) was 97 % of control.

With O[O][Sn][c]1ccccc1 the T/C [3] was 100 % of control, the T/C [4] was 100 % of control and the T/C [5] was 86 % of control.

With Brc1ccc2nc3ccccc3c(SCCCCCCSc3c4ccccc4nc4ccc(Br)cc34)c2c1 the T/C [6] was 87 % of control and 93 % of control, the T/C [7] was 89 % of control and the T/C [8] was 91 % of control.

In the case of CCCCOC(=O)CSSCC(=O)OCCCC, the T/C (dose: 50.0 mg/kg/injection, schedule: Q04DX003 (ip), vehicle: saline with Tween-80) is reported as 109 % of control, the T/C (dose: 100.0 mg/kg/injection, schedule: Q04DX003 (ip), vehicle: saline with Tween-80) is reported as 109 % of control and the T/C (dose: 200.0 mg/kg/injection, schedule: Q04DX003 (ip), vehicle: saline with Tween-80) is reported as 109 % of control.

With O=C(O)c1cc(N=C=S)ccc1-c1c2ccc(=O)cc-2oc2cc(O)ccc12 the T/C (dose: 12.5 mg/kg/injection, schedule: Q01DX005 (ip), vehicle: saline + Tween-80 + alcohol) was 105 % of control, the T/C (dose: 25.0 mg/kg/injection, schedule: Q01DX005 (ip), vehicle: saline + Tween-80 + alcohol) was 105 % of control and the T/C (dose: 50.0 mg/kg/injection, schedule: Q01DX005 (ip), vehicle: saline + Tween-80 + alcohol) was 105 % of control. For the same compound, the T/C [1] was 114 % of control and the T/C [2] was 115 % of control.

For CCO/C=N/NC(=O)CNC(=O)C=[N+]=[N-], the T/C (dose: 180.0 mg/kg/injection, schedule: Q01DX009 (ip), vehicle: water) was 172 % of control.

In the case of NC(CCSCNc1ncnc2c1ncn2C1OC(CO)C(O)C1O)C(=O)O (centres undefined), the T/C (dose: 100.0 mg/kg/injection, schedule: Q04DX002 (ip), vehicle: saline with Tween-80) is reported as 97 % of control, the T/C (dose: 200.0 mg/kg/injection, schedule: Q04DX002 (ip), vehicle: saline with Tween-80) is reported as 93 % of control and the T/C (dose: 400.0 mg/kg/injection, schedule: Q04DX002 (ip), vehicle: saline with Tween-80) is reported as 93 % of control.

With COc1ccc2cc1Oc1ccc(cc1)CC1c3cc(OC)c(OC)c(c3CCN1C)Oc1c(O)c(OC)cc3c1C(C2)N(C)CC3 (centres undefined) the T/C (dose: 20.0 mg/kg/injection, schedule: Q01DX009 (ip), vehicle: Klucel (hydroxypropylcellulose) (HPC)) was 109 % of control, the T/C (dose: 40.0 mg/kg/injection, schedule: Q01DX009 (ip), vehicle: Klucel (hydroxypropylcellulose) (HPC)) was 108 % of control and the T/C (dose: 80.0 mg/kg/injection, schedule: Q01DX009 (ip), vehicle: Klucel (hydroxypropylcellulose) (HPC)) was 101 % of control. The T/C (dose: 160.0 mg/kg/injection, schedule: Q01DX009 (ip), vehicle: Klucel (hydroxypropylcellulose) (HPC)) was 113 % of control.

For CCOC(=O)/C=C(\C)Nc1ccccc1N, the T/C (dose: 100.0 mg/kg/injection, schedule: Q01DX001 (ip), vehicle: saline with Tween-80) was 97 % of control and the T/C (dose: 200.0 mg/kg/injection, schedule: Q01DX001 (ip), vehicle: saline with Tween-80) was 93 % of control.

CSC(/C=N\O)=N/O was tested, and the T/C [9] was 88 % of control, the T/C [10] was 106 % of control and the T/C [11] was 109 % of control.

For O=C1C=CC(=Nc2cc(Br)c(O)c(Br)c2)C=C1, the T/C (dose: 12.5 mg/kg/injection, schedule: Q01DX005 (ip), vehicle: saline) was 103 % of control, the T/C (dose: 25.0 mg/kg/injection, schedule: Q01DX005 (ip), vehicle: saline) was 99 % of control and the T/C (dose: 50.0 mg/kg/injection, schedule: Q01DX005 (ip), vehicle: saline) was 89 % of control and 95 % of control.
